Assay: Particle size measurement using a Malvern Particle Sizer S
Format: physicochemical
Details: crystalline particles of the calcium salt monohydrate prepared by sonocrystallisation
Procedure: Particle size of the two samples were measured using a Malvern Particle Sizer S. The (v0.5) values are as shown below: […]

Compound | D(v,0.5) particle size
C/C(=C/C(=O)c1ccccc1)N[C@@H](Cc1ccc(OCCc2nc(-c3ccccc3)oc2C)cc1)C(=O)[O-].C/C(=C/C(=O)c1ccccc1)N[C@@H](Cc1ccc(OCCc2nc(-c3ccccc3)oc2C)cc1)C(=O)[O-].[Ca+2] [Sample 1, calcium salt of (2S)-2-{[(Z)-1-methyl-3-oxo-3-phenyl-1-propenyl]amino}-3-{4-[2-(5-methyl-2-phenyl-1,3-oxazol-4-yl)ethoxy]phenyl}propanoic acid] | 32.2 microns
C/C(=C/C(=O)c1ccccc1)N[C@@H](Cc1ccc(OCCc2nc(-c3ccccc3)oc2C)cc1)C(=O)[O-].C/C(=C/C(=O)c1ccccc1)N[C@@H](Cc1ccc(OCCc2nc(-c3ccccc3)oc2C)cc1)C(=O)[O-].[Ca+2] [Sample 2, calcium salt of (2S)-2-{[(Z)-1-methyl-3-oxo-3-phenyl-1-propenyl]amino}-3-{4-[2-(5-methyl-2-phenyl-1,3-oxazol-4-yl)ethoxy]phenyl}propanoic acid] | 42.3 microns
